Experimental data: patent publication US4946835A (priority 1988, dated 1990)
In brackets after ≈: the same amount, converted by molar mass. Read-outs that look alike come from different tables or passages of the source. Values belong to the compound of their own block, whether it stands above or below them.

Columns and labels:
Cryptococcus neoformans [1] = assay: agar dilution assay (MIC) against expanded panel of 84 Cryptococcus neoformans isolates; assay type: cell-based; conditions: for MIC50: read-out: MIC50 (concentration at which 50% of the strains were inhibited); for MIC90: read-out: MIC90 (concentration at which 90% of the strains were inhibited)
Protocol: (§1) Such activity may be illustrated with test results against Cryptococcus neoformans employing yeast nitrogen base dextrose agar medium. In carrying out the assay, Compound I was solubilized in 10 percent dimethyl sulfoxide (DMSO) supplemented with one drop of Tween 20. Twofold dilutions were made with sterile distilled water/10 percent DMSO to obtain final drug concentrations in the agar dilution assay plates ranging from 128 to 0.06 μg/ml against two strains of Cryptococcus neoformans and subsequently against an expanded panel of 84 Cryptococcus strains at concentrations ranging from 0.008 to 16.0 μg/ml.
(§2) Nystatin or amphotericin B was used as a positive control. For the assay, nystatin was solubilized in 10 percent dimethylformamide and diluted in sterile distilled water; amphotericin B was solubilized by expressing water directly into a lyophilized cake and shaking until the colloidal solution was clear and then diluted in sterile distilled water. The final drug concentrations ranged from 0.063 to 128 μg/ml.

Scopulariopsis communes = assay: disk diffusion assay, Scopulariopsis communes; assay type: cell-based; design: key: fuzzy (F)--a zone that had a fuzzy edge and clear center surrounding the disc; hazy (H)--a zone that was hazy throughout; slightly hazy (S)--a zone in which low levels of growth were discernible throughout the inhibition zone; very hazy (V)--a zone in which the differences between the background lawn and inhibition zone were barely discernible; conditions: appearance of inhibition zone
Protocol: (§3) The broad antifungal activity of Compound I against fungi may be illustrated with representative assay results in a disk diffusion assay. Filamentous fungi used in the assays were prepared from stock cultures which had been maintained on potato dextrose agar (Difco) and transferred serially at two week intervals using standard microbiological techniques. Yeast used were prepared from stock cultures of strains of yeast which had been maintained frozen at -80° C. in 20 percent aqueous glycerol.
(§4) Seeded agar assay plates were prepared according to the type of assay strain. Inoculum for filamentous fungi was prepared by scraping the surface of stock plates with a moistened sterile dacron swab. The spores and mycelia were then suspended in 10 milliliters of sterile potato dextrose broth (PDB) and adjusted to 70% transmittance (T) at 660 nm. Inoculum for Cryptococcus was prepared from overnight broth cultures. Cultures were then diluted into PDB to a final concentration of either 40% or 70% T at 660 nm. Assay plates were prepared by diluting the inoculum into appropriate molten agar medium, and thereafter cooled to 45° C., to yield a final concentration of 4 percent.
(§5) Samples were applied to 6.2 mm filter paper disks (25 μl disk) and air dried at 24° C. […]
(§6) Following incubation, inhibition zones were measured and recorded. […]

Trichoderma sp. = assay: disk diffusion assay, Trichoderma sp.; assay type: cell-based; design: key: fuzzy (F)--a zone that had a fuzzy edge and clear center surrounding the disc; hazy (H)--a zone that was hazy throughout; slightly hazy (S)--a zone in which low levels of growth were discernible throughout the inhibition zone; very hazy (V)--a zone in which the differences between the background lawn and inhibition zone were barely discernible; conditions: appearance of inhibition zone
Protocol: as §3, §4, §5, §6

Cephalosporium sp. = assay: disk diffusion assay, Cephalosporium sp.; assay type: cell-based; design: key: fuzzy (F)--a zone that had a fuzzy edge and clear center surrounding the disc; hazy (H)--a zone that was hazy throughout; slightly hazy (S)--a zone in which low levels of growth were discernible throughout the inhibition zone; very hazy (V)--a zone in which the differences between the background lawn and inhibition zone were barely discernible; conditions: appearance of inhibition zone
Protocol: as §3, §4, §5, §6

solubility = conditions: organic solvents
Aspergillus niger = assay: disk diffusion assay, Aspergillus niger; assay type: cell-based; design: key: fuzzy (F)--a zone that had a fuzzy edge and clear center surrounding the disc; hazy (H)--a zone that was hazy throughout; slightly hazy (S)--a zone in which low levels of growth were discernible throughout the inhibition zone; very hazy (V)--a zone in which the differences between the background lawn and inhibition zone were barely discernible; conditions: appearance of inhibition zone
Protocol: as §3, §4, §5, §6

Erwinia species = assay: activity against bacteria (statement), Erwinia; assay type: cell-based
Phoma sp. = assay: disk diffusion assay, Phoma sp.; assay type: cell-based; design: key: fuzzy (F)--a zone that had a fuzzy edge and clear center surrounding the disc; hazy (H)--a zone that was hazy throughout; slightly hazy (S)--a zone in which low levels of growth were discernible throughout the inhibition zone; very hazy (V)--a zone in which the differences between the background lawn and inhibition zone were barely discernible; conditions: appearance of inhibition zone
Protocol: as §3, §4, §5, §6

Cryptococcus laurentii = assay: disk diffusion assay, Cryptococcus laurentii; assay type: cell-based; design: key: fuzzy (F)--a zone that had a fuzzy edge and clear center surrounding the disc; hazy (H)--a zone that was hazy throughout; slightly hazy (S)--a zone in which low levels of growth were discernible throughout the inhibition zone; very hazy (V)--a zone in which the differences between the background lawn and inhibition zone were barely discernible; conditions: appearance of inhibition zone
Protocol: as §3, §4, §5, §6

Cochliobolus miyabeanus = assay: disk diffusion assay, Cochliobolus miyabeanus; assay type: cell-based; design: key: fuzzy (F)--a zone that had a fuzzy edge and clear center surrounding the disc; hazy (H)--a zone that was hazy throughout; slightly hazy (S)--a zone in which low levels of growth were discernible throughout the inhibition zone; very hazy (V)--a zone in which the differences between the background lawn and inhibition zone were barely discernible; conditions: appearance of inhibition zone
Protocol: as §3, §4, §5, §6

Fusarium oxysporum = assay: disk diffusion assay, Fusarium oxysporum; assay type: cell-based; design: key: fuzzy (F)--a zone that had a fuzzy edge and clear center surrounding the disc; hazy (H)--a zone that was hazy throughout; slightly hazy (S)--a zone in which low levels of growth were discernible throughout the inhibition zone; very hazy (V)--a zone in which the differences between the background lawn and inhibition zone were barely discernible; conditions: appearance of inhibition zone
Protocol: as §3, §4, §5, §6

Staphylococcus species = assay: activity against bacteria (statement), Staphylococcus; assay type: cell-based
Aspergillus flavus = assay: disk diffusion assay, Aspergillus flavus; assay type: cell-based; design: key: fuzzy (F)--a zone that had a fuzzy edge and clear center surrounding the disc; hazy (H)--a zone that was hazy throughout; slightly hazy (S)--a zone in which low levels of growth were discernible throughout the inhibition zone; very hazy (V)--a zone in which the differences between the background lawn and inhibition zone were barely discernible; conditions: appearance of inhibition zone
Protocol: as §3, §4, §5, §6

Penicillium sp. = assay: disk diffusion assay, Penicillium sp.; assay type: cell-based; design: key: fuzzy (F)--a zone that had a fuzzy edge and clear center surrounding the disc; hazy (H)--a zone that was hazy throughout; slightly hazy (S)--a zone in which low levels of growth were discernible throughout the inhibition zone; very hazy (V)--a zone in which the differences between the background lawn and inhibition zone were barely discernible; conditions: appearance of inhibition zone
Protocol: as §3, §4, §5, §6

Cryptococcus albidus = assay: disk diffusion assay, Cryptococcus albidus; assay type: cell-based; design: key: fuzzy (F)--a zone that had a fuzzy edge and clear center surrounding the disc; hazy (H)--a zone that was hazy throughout; slightly hazy (S)--a zone in which low levels of growth were discernible throughout the inhibition zone; very hazy (V)--a zone in which the differences between the background lawn and inhibition zone were barely discernible; conditions: appearance of inhibition zone
Protocol: as §3, §4, §5, §6

Ustilago zea = assay: disk diffusion assay, Ustilago zea; assay type: cell-based; design: key: fuzzy (F)--a zone that had a fuzzy edge and clear center surrounding the disc; hazy (H)--a zone that was hazy throughout; slightly hazy (S)--a zone in which low levels of growth were discernible throughout the inhibition zone; very hazy (V)--a zone in which the differences between the background lawn and inhibition zone were barely discernible; conditions: appearance of inhibition zone
Protocol: as §3, §4, §5, §6

Aspergillus fumigatus = assay: disk diffusion assay, Aspergillus fumigatus; assay type: cell-based; design: key: fuzzy (F)--a zone that had a fuzzy edge and clear center surrounding the disc; hazy (H)--a zone that was hazy throughout; slightly hazy (S)--a zone in which low levels of growth were discernible throughout the inhibition zone; very hazy (V)--a zone in which the differences between the background lawn and inhibition zone were barely discernible; conditions: appearance of inhibition zone
Protocol: as §3, §4, §5, §6

Serratia species = assay: activity against bacteria (statement), Serratia; assay type: cell-based
Trichoderma lignorum = assay: disk diffusion assay, Trichoderma lignorum; assay type: cell-based; design: key: fuzzy (F)--a zone that had a fuzzy edge and clear center surrounding the disc; hazy (H)--a zone that was hazy throughout; slightly hazy (S)--a zone in which low levels of growth were discernible throughout the inhibition zone; very hazy (V)--a zone in which the differences between the background lawn and inhibition zone were barely discernible; conditions: appearance of inhibition zone
Protocol: as §3, §4, §5, §6

Botrytis allii = assay: disk diffusion assay, Botrytis allii; assay type: cell-based; design: key: fuzzy (F)--a zone that had a fuzzy edge and clear center surrounding the disc; hazy (H)--a zone that was hazy throughout; slightly hazy (S)--a zone in which low levels of growth were discernible throughout the inhibition zone; very hazy (V)--a zone in which the differences between the background lawn and inhibition zone were barely discernible; conditions: appearance of inhibition zone
Protocol: as §3, §4, §5, §6

Alternaria solani = assay: disk diffusion assay, Alternaria solani; assay type: cell-based; design: key: fuzzy (F)--a zone that had a fuzzy edge and clear center surrounding the disc; hazy (H)--a zone that was hazy throughout; slightly hazy (S)--a zone in which low levels of growth were discernible throughout the inhibition zone; very hazy (V)--a zone in which the differences between the background lawn and inhibition zone were barely discernible; conditions: appearance of inhibition zone
Protocol: as §3, §4, §5, §6

Rhizomucor miehei = assay: disk diffusion assay, Rhizomucor miehei; assay type: cell-based; design: key: fuzzy (F)--a zone that had a fuzzy edge and clear center surrounding the disc; hazy (H)--a zone that was hazy throughout; slightly hazy (S)--a zone in which low levels of growth were discernible throughout the inhibition zone; very hazy (V)--a zone in which the differences between the background lawn and inhibition zone were barely discernible; conditions: appearance of inhibition zone
Protocol: as §3, §4, §5, §6

Ceratocystis ulmi = assay: disk diffusion assay, Ceratocystis ulmi; assay type: cell-based; design: key: fuzzy (F)--a zone that had a fuzzy edge and clear center surrounding the disc; hazy (H)--a zone that was hazy throughout; slightly hazy (S)--a zone in which low levels of growth were discernible throughout the inhibition zone; very hazy (V)--a zone in which the differences between the background lawn and inhibition zone were barely discernible; conditions: appearance of inhibition zone
Protocol: as §3, §4, §5, §6

Cryptococcus neoformans [2] = assay: agar dilution assay (MIC) against two strains of Cryptococcus neoformans; assay type: cell-based; conditions: yeast nitrogen base dextrose agar
Protocol: as §1, §2
The minimum inhibitory concentration (MIC) against the organisms employed on the standard assay were as follows: […]

[3] = test system: certain yeasts, particularly the Cryptococcus species; assay: activity against certain yeasts (statement); assay type: cell-based
Cercospora beticola = assay: disk diffusion assay, Cercospora beticola; assay type: cell-based; design: key: fuzzy (F)--a zone that had a fuzzy edge and clear center surrounding the disc; hazy (H)--a zone that was hazy throughout; slightly hazy (S)--a zone in which low levels of growth were discernible throughout the inhibition zone; very hazy (V)--a zone in which the differences between the background lawn and inhibition zone were barely discernible; conditions: appearance of inhibition zone
Protocol: as §3, §4, §5, §6

Verticillium serrae = assay: disk diffusion assay, Verticillium serrae; assay type: cell-based; design: key: fuzzy (F)--a zone that had a fuzzy edge and clear center surrounding the disc; hazy (H)--a zone that was hazy throughout; slightly hazy (S)--a zone in which low levels of growth were discernible throughout the inhibition zone; very hazy (V)--a zone in which the differences between the background lawn and inhibition zone were barely discernible; conditions: appearance of inhibition zone
Protocol: as §3, §4, §5, §6

MIC50 (Cryptococcus neoformans [1]; 84 isolates): 0.125 µg/mL (≈ 0.135 µM) | MIC90 (Cryptococcus neoformans [1]; 84 isolates): 0.25 µg/mL (≈ 0.271 µM)
SMILES: C[C@@H]1[C@H](O)[C@@H](C)/C=C/C=C/C=C/C=C/C=C/C=C/C=C/[C@H](O[C@@H]2O[C@H](C)[C@@H](O)[C@H](N)[C@@H]2O)C[C@@H]2O[C@](O)(C[C@@H](O)C[C@@H](O)[C@H](O)CC[C@@H](O)C[C@@H](O)CC(=O)O[C@H]1C)C[C@H](O)[C@H]2C(=O)O [Amphotericin B, amphotericin B, reference compound]

SMILES: COc1ccc(CC2NC(=O)C=CCC(C(C)C3OC3c3ccccc3)OC(=O)C(CC(C)C)OC(=O)C(C)CNC2=O)cc1Cl (stereo not shown) [Compound I, 10-[(3-chloro 4methoxyphenyl)methyl]-6-methyl-3-(2-methylpropyl)-16-[1-(3-phenyloxiranyl)ethyl]-1,4-dioxa-8,11-diazacyclohexadec-13-ene-2,5,9,12-tetrone]
MIC (Cryptococcus neoformans [1]; read-out: G-MIC (geometric means of MIC)): 0.03 µg/mL (≈ 0.0458 µM) | MIC50 (Cryptococcus neoformans [1]): 0.031 µg/mL (≈ 0.0473 µM) | MIC90 (Cryptococcus neoformans [1]): 0.031 µg/mL (≈ 0.0473 µM) | Zone qualifier (Scopulariopsis communes): H | Zone qualifier (Trichoderma sp.): S | Zone qualifier (Cephalosporium sp.): V | solubility (solubility): soluble in organic solvents | Zone qualifier (Aspergillus niger): S | activity against bacteria (Erwinia species): active | Zone qualifier (Phoma sp.): S | Zone qualifier (Cryptococcus laurentii): H and S | Zone qualifier (Cochliobolus miyabeanus): F | Zone qualifier (Fusarium oxysporum): F | activity against bacteria (Staphylococcus species): active | Zone qualifier (Aspergillus flavus): S | Zone qualifier (Penicillium sp.): S and F | Zone qualifier (Cryptococcus albidus): S | Zone qualifier (Ustilago zea): S | Zone qualifier (Aspergillus fumigatus): S | activity against bacteria (Serratia species): active | Zone qualifier (Trichoderma lignorum): S | Zone qualifier (Botrytis allii): S | Zone qualifier (Alternaria solani): S | Zone qualifier (Rhizomucor miehei): V | Zone qualifier (Ceratocystis ulmi): S | MIC (Cryptococcus neoformans [2]; strain MY1051, read-out: Minimum Inhibitory Concentration): ≤ 0.063 µg/mL | Minimum Inhibitory Concentration (Cryptococcus neoformans [2]; strain MY1146): ≤ 0.063 µg/mL | activity against certain yeasts [3]: active | Zone qualifier (Cercospora beticola): S | Zone qualifier (Verticillium serrae): V

SMILES: C[C@@H]1[C@H](O)[C@@H](C)/C=C/C=C/CC/C=C/C=C/C=C/C=C/C(O[C@H]2O[C@H](C)[C@@H](O)[C@H](N)[C@@H]2O)CC2O[C@](O)(CC(O)C(O)CCC(O)CC(O)CC(O)CC(=O)O[C@H]1C)CC(O)C2C(=O)O (stereo partly shown) [Nystatin, nystatin, reference compound]
Minimum Inhibitory Concentration (Cryptococcus neoformans [2]; strain MY1051): 1.0 µg/mL | Minimum Inhibitory Concentration (Cryptococcus neoformans [2]; strain MY1146): 1.0 µg/mL
